For 16 compounds, inhibition and melting point results are on record in US9315490B2, “2,5-substituted pyrimidines” (Grünenthal GmbH, priority 2014, dated 2016).

One data set concerns the target T1, human PDE4B1 (Homo sapiens, UniProt Q07343).
T1 construct: host or cells: Sf9 cells
As to the kind of experiment: TR-FRET assay using the LANCE Ultra cAMP kit to determine the activity of hPDE4B1. In kind it is biochemical. The settings on record: read-out: Inhibition in % (inhibition of PDE4B); for inhibition at 1 µM: test concentration 1 μM; for inhibition at 10 µM: test concentration 10 μM (marked in cell). Summed up:
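Sf9-expressed recombinant human PDE4B1 (0.96 U) hydrolyses 500 nM cAMP for 30 minutes at room temperature in 50 mM Tris-HCl, 50 mM MgCl2, 5 mM DTT, pH 8.5. The reaction is stopped with IBMX, and residual cAMP is measured by TR-FRET (665/620 ratio). IC50 comes from ten concentrations.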

T1 sequence (Q07343 whole entry): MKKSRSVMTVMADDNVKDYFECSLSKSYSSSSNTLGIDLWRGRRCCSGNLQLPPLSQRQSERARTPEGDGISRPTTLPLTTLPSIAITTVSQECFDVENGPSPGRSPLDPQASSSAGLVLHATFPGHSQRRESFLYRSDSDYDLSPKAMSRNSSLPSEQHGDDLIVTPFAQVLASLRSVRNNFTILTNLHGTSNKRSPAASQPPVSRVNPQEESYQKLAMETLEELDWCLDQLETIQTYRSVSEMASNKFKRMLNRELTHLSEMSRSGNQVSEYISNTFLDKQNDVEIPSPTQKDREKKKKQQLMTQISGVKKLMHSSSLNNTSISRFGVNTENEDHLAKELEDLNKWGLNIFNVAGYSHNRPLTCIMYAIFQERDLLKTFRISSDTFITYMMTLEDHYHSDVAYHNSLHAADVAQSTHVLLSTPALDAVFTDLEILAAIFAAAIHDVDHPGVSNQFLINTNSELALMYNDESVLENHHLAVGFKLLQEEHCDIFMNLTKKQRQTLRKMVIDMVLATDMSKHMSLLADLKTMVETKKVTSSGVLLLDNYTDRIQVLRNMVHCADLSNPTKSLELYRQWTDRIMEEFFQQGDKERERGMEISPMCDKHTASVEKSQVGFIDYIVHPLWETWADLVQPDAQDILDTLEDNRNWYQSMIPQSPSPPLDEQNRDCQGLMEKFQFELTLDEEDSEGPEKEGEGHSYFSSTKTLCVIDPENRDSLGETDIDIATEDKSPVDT

With `C[S+]([O-])c1cn(-c2ncc(-c3nc(C#N)cs3)cn2)c2cc(C(=O)N3CCOCC3)ccc12` (centres unmarked) [Example 203, 2-(2-(3-(Methylsulfinyl)-6-(morpholine-4-carbonyl)-1H-indol-1-yl)pyrimidin-5-yl)thiazole-4-carbonitrile], the melting point was 273 to 276 °C. In addition, on human PDE4B1, the inhibition at 1 µM was 67%.
For `C[S+]([O-])c1cn(-c2ncc(-c3nc(C(N)=O)cs3)cn2)c2cc(C(=O)N3CCOCC3)ccc12` (centres unmarked) [Example 204, 2-(2-(3-(Methylsulfinyl)-6-(morpholine-4-carbonyl)-1H-indol-1-yl)pyrimidin-5-yl)thiazole-4-carboxamide], in that order: 286 to 288 °C and 82%.
Turning to `Cc1csc(-c2cnc(-n3cc([S+](C)[O-])c4ccc(C(=O)N5CCOCC5)cc43)nc2)n1` (centres unmarked) [Example 205, (3-(Methylsulfinyl)-1-(5-(4-methylthiazol-2-yl)pyrimidin-2-yl)-1H-indol-6-yl)(morpholino)methanone], the melting point is 247 to 249 °C. Also, the inhibition at 1 µM at human PDE4B1 was 93%.
In the same order, the values of `Cc1cnc(-c2cnc(-n3cc([S+](C)[O-])c4ccc(C(=O)N5CCOCC5)cc43)nc2)s1` (centres unmarked) [Example 206, (3-(Methylsulfinyl)-1-(5-(5-methylthiazol-2-yl)pyrimidin-2-yl)-1H-indol-6-yl)(morpholino)methanone] are 257 to 260 °C and 85%.
For `C[S+]([O-])c1cn(-c2ncc(-c3ncc(C(N)=O)s3)cn2)c2cc(C(=O)N3CCOCC3)ccc12` (centres unmarked) [Example 208, 2-(2-(3-(Methylsulfinyl)-6-(morpholine-4-carbonyl)-1H-indol-1-yl)pyrimidin-5-yl)thiazole-5-carboxamide], in that order: 286 to 289 °C and 82%.
In the same order, the values of `C[S+]([O-])c1cn(-c2ncc(-c3ccccc3F)cn2)c2cc(C(=O)N3CCO[C@@H](CO)C3)ccc12` (stereo partly drawn) [Example 219, (1-(5-(2-Fluorophenyl)pyrimidin-2-yl)-3-(methylsulfinyl)-1H-indol-6-yl)((R)-2-(hydroxymethyl)morpholino)methanone] are 206 to 210 °C and 87%.
With `C[S+]([O-])c1cn(-c2ncc(-c3ccccc3F)cn2)c2cc(C(=O)N3CCO[C@H](CO)C3)ccc12` (stereo partly drawn) [Example 220, (1-(5-(2-Fluorophenyl)pyrimidin-2-yl)-3-(methylsulfinyl)-1H-indol-6-yl)((S)-2-(hydroxymethyl)morpholino)methanone], the melting point lay in the range of 194 to 198 °C. Also, the inhibition at 1 µM on human PDE4B1 was 93%.
In the same order, the values of `CN(CCN)C(=O)c1ccc2c([S+](C)[O-])cn(-c3ncc(-c4ccccc4F)cn3)c2c1` (centres unmarked) [Example 221, N-(2-Aminoethyl)-1-(5-(2-fluorophenyl)pyrimidin-2-yl)-N-methyl-3-(methylsulfinyl)-1H-indole-6-carboxamide] are 88 to 92 °C and 94%.
As for `CCc1ccnc(-c2cnc(-n3cc([S+](C)[O-])c4ccc(C(=O)N5CC[C@@H](N)C5)cc43)nc2)c1` (stereo partly drawn) [Example 337, ((R)-3-Aminopyrrolidin-1-yl)(1-(5-(4-ethylpyridin-2-yl)pyrimidin-2-yl)-3-(methylsulfinyl)-1H-indol-6-yl)methanone], the melting point lay in the range of 160 to 163 °C. Moreover, the inhibition at 10 µM on human PDE4B1 turned out to be 102%.
For `CC(C)c1ccnc(-c2cnc(-n3cc([S+](C)[O-])c4ccc(C(=O)N5CC[C@@H](N)C5)cc43)nc2)c1` (stereo partly drawn) [Example 338, ((R)-3-Aminopyrrolidin-1-yl)(1-(5-(4-isopropylpyridin-2-yl)pyrimidin-2-yl)-3-(methylsulfinyl)-1H-indol-6-yl)methanone], in that order: 264 to 268 °C and 99%.
In the same order, the values of `C[S+]([O-])c1cn(-c2ncc(-c3cc(C4CC4)ccn3)cn2)c2cc(C(=O)N3CC[C@@H](N)C3)ccc12` (stereo partly drawn) [Example 339, ((R)-3-Aminopyrrolidin-1-yl)(1-(5-(4-cyclopropylpyridin-2-yl)pyrimidin-2-yl)-3-(methylsulfinyl)-1H-indol-6-yl)methanone] are 278 to 281 °C and 105%.
For `Cc1ccnc(-c2cnc(-n3cc(S(C)(=O)=O)c4ccc(C(=O)N5CC[C@@H](N)C5)cc43)nc2)c1` [Example 340, (R)-(3-Aminopyrrolidin-1-yl)(1-(5-(4-methylpyridin-2-yl)pyrimidin-2-yl)-3-(methylsulfonyl)-1H-indol-6-yl)methanone], in that order: 157 to 160 °C and 100%.
In the case of `CNCCN(C)C(=O)c1ccc2c([S+](C)[O-])cn(-c3ncc(-c4ccccc4F)cn3)c2c1` (centres unmarked) [Example 346, 1-(5-(2-Fluorophenyl)pyrimidin-2-yl)-N-methyl-N-(2-(methylamino)ethyl)-3-(methylsulfinyl)-1H-indole-6-carboxamide], the melting point was 122 to 126 °C. The inhibition at 1 µM on human PDE4B1 came out at 87%.
Compound `C[S+]([O-])c1cn(-c2ncc(-c3ccccc3F)cn2)c2cc(C(=O)N3CC4CCC3CN4)ccc12` (centres unmarked) [Example 347, 2,5-Diazabicyclo[2.2.2]octan-2-yl(1-(5-(2-fluorophenyl)pyrimidin-2-yl)-3-(methylsulfinyl)-1H-indol-6-yl)methanone] came in with a melting point of 141 to 144 °C. For the same compound, at human PDE4B1, the inhibition at 10 µM was determined as 97%.
Regarding `C[S+]([O-])c1cn(-c2ncc(-c3ccccc3F)cn2)c2cc(C(=O)N3C4CCC3CNC4)ccc12` (centres unmarked) [Example 348, 3,8-Diazabicyclo[3.2.1]octan-8-yl(1-(5-(2-fluorophenyl)pyrimidin-2-yl)-3-(methylsulfinyl)-1H-indol-6-yl)methanone], the melting point lay within 237 to 240 °C. For the same compound, the inhibition at 1 µM on human PDE4B1 was 99%.
In the same order, the values of `O=C(c1ccc2c(C3CC3)cn(-c3ncc(-c4ccccc4F)cn3)c2c1)N1CCOCC1` [Example 354, (3-Cyclopropyl-1-(5-(2-fluorophenyl)pyrimidin-2-yl)-1H-indol-6-yl)(morpholino) methanone] are 177 to 181 °C and 71%.
